Patent publication US20220411414A1, “INHIBITORS FOR THE B-CATENIN/B-CELL LYMPHOMA 9 (BCL9) PROTEIN-PROTEIN INTERACTION” (H. LEE MOFFITT CANCER CENTER AND RESEARCH INSTITUTE, INC., priority 2018, published 2022)

Legend:
MDA-MB-231 = assay: MTs growth inhibition assay, MDA-MB-231; type: cell-based; settings: Homo sapiens, Wnt/β-catenin-hyperactive, 72 h, read-out: MTs IC50 ± SD MDA-MB-231
Method: MTs cancer cell growth inhibition assays were conducted for 4 and 5. Three cancer cell lines with hyperactive Wnt/β-catenin signaling, SW480, HCT116, and MDA-MB-231. MTs cell viability assay. Colorectal cancer cell lines, SW480 and HCT116, and triple-negative breast cancer cell line MDA-MB-231 were seeded in 96-well plates at 4×10^3 cells/well, maintained overnight at 37° C., and incubated in the presence of 4 and 5 at various concentrations. Cell viability was monitored after 72 h using a freshly prepared mixture of 1 part phenazine methosulfate (PMS, Sigma) solution (0.92 mg/mL) and 19 parts 3-(4,5-dimethylthiazol-2-yl)-5-(3-carboxymethoxyphenyl)-2-(4-sulfophenyl)-2H-tetrazolium (MTs, Promega) solution (2 mg/mL). Cells were incubated in 10 μL of this solution at 37° C. for 3 h, and A490 was measured. The effect of each compound is expressed as the concentration required to reduce A490 by 50% (IC50) relative to vehicle-treated cells. Experiments were performed in triplicate.

β-catenin/BCL9 = target: T1, β-catenin/BCL9 (Homo sapiens, UniProt P35222); assay: AlphaScreen competitive inhibition assay, β-catenin/BCL9 PPI; type: binding; settings: for Ki: AlphaScreen
T1 construct: Full-length β-catenin and (residues 1-781) were cloned into a pET-28b vector carrying a C-terminal 6× histidine; made in house; host or cells: E. coli BL21 DE3
T1 sequence (P35222 1-781): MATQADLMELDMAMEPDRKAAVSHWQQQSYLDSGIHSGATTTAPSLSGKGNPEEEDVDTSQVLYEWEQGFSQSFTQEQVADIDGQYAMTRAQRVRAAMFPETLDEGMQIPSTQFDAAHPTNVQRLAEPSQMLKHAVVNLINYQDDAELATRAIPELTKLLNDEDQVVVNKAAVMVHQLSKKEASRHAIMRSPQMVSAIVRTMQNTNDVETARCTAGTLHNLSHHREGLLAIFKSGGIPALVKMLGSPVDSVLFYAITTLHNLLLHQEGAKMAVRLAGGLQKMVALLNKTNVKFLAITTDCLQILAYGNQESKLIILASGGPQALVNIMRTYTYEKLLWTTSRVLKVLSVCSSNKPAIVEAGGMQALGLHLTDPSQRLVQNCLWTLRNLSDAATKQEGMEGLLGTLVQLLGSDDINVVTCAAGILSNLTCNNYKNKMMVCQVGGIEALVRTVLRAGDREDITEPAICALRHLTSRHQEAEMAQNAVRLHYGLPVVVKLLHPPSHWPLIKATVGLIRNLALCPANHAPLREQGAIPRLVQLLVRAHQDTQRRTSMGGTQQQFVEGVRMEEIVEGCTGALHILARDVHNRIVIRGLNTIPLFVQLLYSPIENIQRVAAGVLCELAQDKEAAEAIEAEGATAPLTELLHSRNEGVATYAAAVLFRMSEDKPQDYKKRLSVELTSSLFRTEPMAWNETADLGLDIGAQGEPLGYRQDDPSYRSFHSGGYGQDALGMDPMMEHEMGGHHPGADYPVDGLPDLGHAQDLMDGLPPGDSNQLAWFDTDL
Source text: The biochemical AlphaScreen assay was employed to evaluate the inhibitory potency of these two final products for disruption of the β-catenin/BCL9 PPI.
(§1) BCL9 peptide synthesis and purification. Human BCL9 (residues 350-375), N-terminally biotinylated human BCL9 (residues 350-375), human E-cadherin (residues 824-877), and N-terminally biotinylated human E-cadherin (residues 824-877) were synthesized by InnoPep Inc. (San Diego, Calif., www.innopep.com). All synthesized peptides were purified by HPLC with purity >95%. The structures were validated by LC/MS. The sequences are as follows (Ahx, 6-aminohexanoic acid).
For the β-catenin/BCL9 assay, 5 nM of biotinylated BCL9 and 40 nM of His6-tagged β-catenin were incubated in assay buffer at 4° C. for 30 min. For the β-catenin/E-cadherin assay, 10 nM of biotinylated human E-cadherin, and 40 nM of His6-tagged human β-catenin were added and incubated in assay buffer at 4° C. for 30 min. Different concentrations of the tested peptide or inhibitor were added and incubated in 20 μL assay buffer at 4° C. for another 1.5 h. All of the above assay plates were covered and gently mixed on an orbital shaker. The donor and acceptor beads were then added to the plates to a final concentration of 10 μg/mL in 25 μL assay buffer. The mixture was incubated for 1 h at 4° C. before detection. The IC50 value was determined by nonlinear least-square analysis of GraphPad Prism 5.0. The inhibition constant (Ki) values were derived from the IC50 values using a method reported by Nikolovska-Coleska et al (Nikolovska-Coleska, Z.; Wang, R.; Fang, X.; Pan, H.; Tomita, Y.; Li, P.; Roller, P. P.; Krajewski, K.; Saito, N. G.; Stuckey, J. A.; Wang, S. Development and optimization of a binding assay for the XIAP BIR3 domain using fluorescence polarization, Anal. Biochem. 2004, 332, 261-273.). The assays were conducted under the conditions required by Nikolovska-Coleska et al.'s equation for determining the Ki values. All of the experiments were performed in triplicate. The results were expressed as mean±standard deviation. The inhibitor selectivity for, β-catenin/BCL9 over, β-catenin/E-cahderin interactions was defined as the ratio of the respective Ki value of β-catenin/E-cadherin interactions over that of β-catenin/BCL9 interactions.

β-catenin/E-cadherin = target: T2, β-catenin/E-cadherin (Homo sapiens, UniProt P35222); assay: AlphaScreen selectivity assay, β-catenin/E-cadherin PPI; type: binding; settings: Table 2, read-out: Ki ± SD β-catenin/E-cadherin
T2 construct: Full-length β-catenin and (residues 1-781) were cloned into a pET-28b vector carrying a C-terminal 6× histidine; made in house; host or cells: E. coli BL21 DE3
T2 sequence (P35222 1-781): T1 sequence (P35222 1-781)
Source text: Compounds 4 and 5 were further evaluated with their selectivities for the disruption of β-catenin/BCL9 over β-catenin/E-cadherin interactions using the AlphaScreen selectivity assay (Zhang, M.; Wisniewski, J. A.; Ji, H AlphaScreen selectivity assay for, β-catenin/B-cell lymphoma 9 inhibitors. Anal. Biochen. 2015, 469, 43-53.).
as §1, with “The structures were validated by LC/MS. The sequences are as follows (Ahx, 6-aminohexanoic acid).” left out
For the β-catenin/BCL9 assay, 5 nM of biotinylated BCL9 and 40 nM of His6-tagged β-catenin were incubated in assay buffer at 4° C. for 30 min. […] The IC50 value was determined by nonlinear least-square analysis of GraphPad Prism 5.0. The inhibition constant (Ki) values were derived from the IC50 values using a method reported by Nikolovska-Coleska et al (Nikolovska-Coleska, Z.; Wang, R.; Fang, X.; Pan, H.; Tomita, Y.; Li, P.; Roller, P. P.; Krajewski, K.; Saito, N. G.; Stuckey, J. A.; Wang, S. Development and optimization of a binding assay for the XIAP BIR3 domain using fluorescence polarization, Anal. Biochem. 2004, 332, 261-273.). […] The results were expressed as mean±standard deviation. […]

In the case of Cl.Cl.O=C(Nc1ccc(O[C@@H]2CCNC2)c(-c2cccc(-c3nn[nH]n3)c2)c1)c1ccc(O[C@H]2CCNC2)c(-c2ccc(F)c(F)c2)c1 [Compound 4, 3′,4′-difluoro-6-(((S)-pyrrolidin-3-yl)oxy)-N-(6-(((R)-pyrrolidin-3-yl)oxy)-3′-(2H-tetrazol-5-yl)-[1,1′-biphenyl]-3-yl)-[1,1′-biphenyl]-3-carboxamide dihydrochloride], the IC50 (MDA-MB-231) is reported as 73000 ± 8900 nM, the “selectivity for β-catenin/BCL9 over β-catenin/E-cadherin PPIs (in words)” value (β-catenin/BCL9; AlphaScreen biochemical assay) is reported as “exceptionally high selectivity” and the Ki (β-catenin/BCL9; Table 1, mean ± SD (n = 3)) is reported as 470 ± 140 nM. The Ki (β-catenin/BCL9; Table 2, mean ± SD (n = 3)) was 470 ± 140 nM, the “Selectivity BCL9/cadherin” value (β-catenin/BCL9; ratio of Ki β-catenin/E-cadherin over Ki β-catenin/BCL9) was greater than 1900 and the Ki (β-catenin/E-cadherin) was greater than 915000 nM.
